Reference: paper PMC3408863 (European journal of medicinal chemistry, 2012)
Where a name gives a salt, the structure may show the parent alone.

Assays:
[1] = target: human FXa (Homo sapiens, UniProt P00742); experiment: Direct inhibition of FXa, chromogenic substrate hydrolysis assay; assay type: biochemical
[2] = target: Human FIIa (Homo sapiens, UniProt P00734); experiment: Chromogenic substrate hydrolysis assay, FIIa; assay type: biochemical; details: FXa over Human FIIa
[3] = target: Human FVIIa (Homo sapiens, UniProt P08709); experiment: Chromogenic substrate hydrolysis assay, FVIIa; assay type: biochemical; details: FXa over Human FVIIa
[4] = target: Human FIXa (Homo sapiens, UniProt P00740); experiment: Chromogenic substrate hydrolysis assay, FIXa; assay type: biochemical; details: FXa over Human FIXa
[5] = target: Human FXIa (Homo sapiens, UniProt P03951); experiment: Chromogenic substrate hydrolysis assay, FXIa; assay type: biochemical; details: FXa over Human FXIa
[6] = target: T1, Human FXIIa (Homo sapiens, UniProt P00748); experiment: Chromogenic substrate hydrolysis assay, FXIIa; assay type: biochemical; details: FXa over Human FXIIa
T1 sequence (P00748 373-615 limits assumed): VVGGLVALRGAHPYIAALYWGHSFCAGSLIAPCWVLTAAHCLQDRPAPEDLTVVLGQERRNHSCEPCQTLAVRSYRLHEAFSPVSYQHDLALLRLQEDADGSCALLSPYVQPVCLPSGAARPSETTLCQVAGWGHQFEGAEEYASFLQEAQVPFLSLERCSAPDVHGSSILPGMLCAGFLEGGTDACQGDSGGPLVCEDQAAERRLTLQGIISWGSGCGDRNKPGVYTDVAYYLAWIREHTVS
T1 sequence (P00748 20-372 limits assumed): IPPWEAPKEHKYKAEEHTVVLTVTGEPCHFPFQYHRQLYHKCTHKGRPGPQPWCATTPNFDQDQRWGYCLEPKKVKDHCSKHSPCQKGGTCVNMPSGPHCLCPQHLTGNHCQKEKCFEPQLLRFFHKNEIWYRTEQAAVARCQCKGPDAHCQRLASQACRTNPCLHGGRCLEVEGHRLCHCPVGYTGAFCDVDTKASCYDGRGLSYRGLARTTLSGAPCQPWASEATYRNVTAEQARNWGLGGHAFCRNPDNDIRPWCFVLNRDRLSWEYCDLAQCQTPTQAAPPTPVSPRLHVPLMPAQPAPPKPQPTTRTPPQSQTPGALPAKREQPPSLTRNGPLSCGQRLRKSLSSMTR

[7] = target: T2, Bovine Trypsin (Bos taurus, UniProt P00760); experiment: Chromogenic substrate hydrolysis assay, trypsin; assay type: biochemical
T2 sequence (P00760 24-246): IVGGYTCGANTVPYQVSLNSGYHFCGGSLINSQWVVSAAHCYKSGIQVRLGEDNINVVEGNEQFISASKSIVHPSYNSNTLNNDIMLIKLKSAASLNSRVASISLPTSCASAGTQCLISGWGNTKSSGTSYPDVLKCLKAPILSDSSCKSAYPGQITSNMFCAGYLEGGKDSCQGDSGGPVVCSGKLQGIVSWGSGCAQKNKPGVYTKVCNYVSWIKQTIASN

[8] = target: Bovine Chymotrypsin (Bos taurus, UniProt P00766); experiment: Chromogenic substrate hydrolysis assay, chymotrypsin; assay type: biochemical; details: FXa over chymotrypsin
[9] = test system: human plasma; details: comparators in clinical trials; cited from earlier work

human FXa, sequence (P00742 235-488 limits assumed): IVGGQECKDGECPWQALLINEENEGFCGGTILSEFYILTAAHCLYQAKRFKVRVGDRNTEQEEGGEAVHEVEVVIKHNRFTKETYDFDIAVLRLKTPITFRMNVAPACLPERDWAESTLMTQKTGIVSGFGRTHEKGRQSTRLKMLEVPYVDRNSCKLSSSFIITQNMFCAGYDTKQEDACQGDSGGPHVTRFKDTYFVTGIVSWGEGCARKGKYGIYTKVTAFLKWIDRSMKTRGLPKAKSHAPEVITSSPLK
human FXa, sequence (P00742 41-179 limits assumed): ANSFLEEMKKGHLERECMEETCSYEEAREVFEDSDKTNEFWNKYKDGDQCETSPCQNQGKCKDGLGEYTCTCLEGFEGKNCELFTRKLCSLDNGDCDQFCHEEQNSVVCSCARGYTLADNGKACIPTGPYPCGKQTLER
Human FXIa, sequence (P03951 388-625 limits assumed): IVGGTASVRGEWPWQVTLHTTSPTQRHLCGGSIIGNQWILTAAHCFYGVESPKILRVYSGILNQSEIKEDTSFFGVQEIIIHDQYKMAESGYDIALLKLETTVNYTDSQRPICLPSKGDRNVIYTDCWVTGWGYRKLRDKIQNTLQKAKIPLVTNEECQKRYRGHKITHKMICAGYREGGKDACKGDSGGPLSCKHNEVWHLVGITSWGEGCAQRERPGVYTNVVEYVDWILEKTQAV
Human FXIa, sequence (P03951 19-387 limits assumed): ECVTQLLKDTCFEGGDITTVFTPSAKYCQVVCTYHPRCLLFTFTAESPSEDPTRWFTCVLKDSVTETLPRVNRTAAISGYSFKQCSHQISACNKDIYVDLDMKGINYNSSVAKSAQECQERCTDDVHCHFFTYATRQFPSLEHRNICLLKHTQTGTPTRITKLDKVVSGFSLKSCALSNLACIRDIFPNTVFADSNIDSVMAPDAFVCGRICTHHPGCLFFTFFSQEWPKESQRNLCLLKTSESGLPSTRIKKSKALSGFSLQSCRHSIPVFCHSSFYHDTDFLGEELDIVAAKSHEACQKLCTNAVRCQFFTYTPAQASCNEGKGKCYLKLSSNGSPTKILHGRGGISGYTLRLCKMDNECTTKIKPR
Human FIXa, sequence (P00740 227-461 limits assumed): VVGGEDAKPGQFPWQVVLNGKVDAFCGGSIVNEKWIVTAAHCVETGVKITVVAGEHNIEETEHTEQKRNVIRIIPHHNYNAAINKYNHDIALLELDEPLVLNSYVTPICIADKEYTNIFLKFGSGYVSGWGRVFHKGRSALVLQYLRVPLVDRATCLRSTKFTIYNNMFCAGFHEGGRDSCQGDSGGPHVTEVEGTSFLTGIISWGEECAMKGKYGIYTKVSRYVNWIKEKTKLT
Human FIXa, sequence (P00740 47-191 limits assumed): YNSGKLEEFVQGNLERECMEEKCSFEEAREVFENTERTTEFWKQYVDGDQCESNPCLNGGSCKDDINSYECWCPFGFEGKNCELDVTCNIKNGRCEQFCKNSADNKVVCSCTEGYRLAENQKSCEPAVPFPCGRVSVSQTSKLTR
Human FVIIa, sequence (P08709 213-466 limits assumed): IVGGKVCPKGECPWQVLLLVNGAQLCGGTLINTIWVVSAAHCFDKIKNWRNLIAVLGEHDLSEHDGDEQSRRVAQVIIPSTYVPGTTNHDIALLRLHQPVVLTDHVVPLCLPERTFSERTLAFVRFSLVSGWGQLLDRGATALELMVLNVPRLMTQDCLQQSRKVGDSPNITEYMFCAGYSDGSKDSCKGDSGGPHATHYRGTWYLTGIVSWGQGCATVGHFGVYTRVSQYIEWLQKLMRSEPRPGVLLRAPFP
Human FVIIa, sequence (P08709 61-212 limits assumed): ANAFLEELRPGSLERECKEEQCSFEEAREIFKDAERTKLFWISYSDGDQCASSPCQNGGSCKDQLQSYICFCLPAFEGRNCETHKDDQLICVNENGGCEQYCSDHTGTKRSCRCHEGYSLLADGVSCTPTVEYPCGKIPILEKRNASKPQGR
Human FVIIa, sequence (P13726 33-295 partner): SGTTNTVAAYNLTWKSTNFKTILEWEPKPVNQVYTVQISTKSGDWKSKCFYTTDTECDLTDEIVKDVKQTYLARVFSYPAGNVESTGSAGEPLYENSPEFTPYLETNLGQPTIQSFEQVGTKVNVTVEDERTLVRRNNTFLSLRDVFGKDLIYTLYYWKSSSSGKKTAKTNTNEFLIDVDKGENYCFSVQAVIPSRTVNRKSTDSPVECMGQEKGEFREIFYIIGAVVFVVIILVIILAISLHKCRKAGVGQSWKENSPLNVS

SMILES: O=C(Nc1ccc(N2CCOCC2=O)cc1)[C@H]1Cc2ccccc2CN1C(=O)Cc1ccc(Cl)cc1 [Inhibitor 47, (R)-2-(2-(4-chlorophenyl)acetyl)-N-(4-(3-oxomorpholino)phenyl)-1,2,3,4-tetrahydro-isoquinoline-3-carboxamide]
- Ki [1]: 135 nM
- fold decrease in IC50 relative to inhibitor 13 ([1]; FXa inhibition, relative to 13 (IC50 = 16.4 μM)): ~ 60 fold
- selectivity for FXa inhibition over other coagulation enzymes ([1]; over FIIa, FVIIa, FIXa, FXIa, and FXIIa): at least 1852 fold
- Selectivity Index [2]: >1852
- Selectivity Index [3]: >3703
- Selectivity Index [4]: >3703
- Selectivity Index [5]: >1852
- Selectivity Index [6]: >1852
- IC50 [7]: > 100000 nM
- Selectivity Index ([7]; FXa over Bovine Trypsin): >370
- selectivity against trypsin ([7]; FXa over trypsin): at least 370 fold
- selectivity against chymotrypsin [8]: ≥ 279 fold

SMILES: CN(C)Cc1nccn1-c1ccc(NC(=O)c2cc(C(F)(F)F)nn2-c2ccc3onc(N)c3c2)c(F)c1 [razaxaban, 1-(3′-aminobenzisoxazol-5′-yl)-3-trifluoromethyl-N-[2-fluoro-4-[(2′-dimethylamino-methyl)imidazol-1-yl]phenyl]-1H-pyrazole-5-carboxyamide hydrochloride]
- PT, concentration doubling the clotting time [9]: 3.8 µM
